Test results as given in US20250332173A1, “COMPOUNDS AND METHODS FOR MODULATING NUCLEIC ACID SPLICING” (REMIX THERAPEUTICS INC., priority 2021, published 2025).
Where two headings read alike, the source gives them in different places.

Key:
HTT mRNA = experiment: RT-qPCR splicing assay, HTT canonical junction (CJ) and alternative junction (AJ) mRNA; assay type: cell-based, human; conditions: Homo sapiens; for AC50: increase in HTT alternative junction (AJ) mRNA, read-out: HTT AJ AC50
In short: (§1)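 A673 cells (normalized to PPIA) or K562 cells (normalized to GAPDH or GUSB) were treated 24 h at 37 °C with an 11-point 3-fold dilution series, top 10 uM, DMSO ≤0.25%. Cell lysates went to one-step RT-qPCR measuring canonical- and alternative-junction MYB or HTT transcripts.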

MYB = experiment: HiBiT protein abundance assay, MYB HiBiT K562 cell line; assay type: cell-based, human; conditions: 24 hours, top dose 10 μM
Experimental: (§2) Compounds described herein were used to screen for effects on quantitative protein abundance using a HiBit assay system (Promega). Quantitative protein abundance was determined by measuring the protein levels of HiBit-tagged protein targets expressed in cell culture via luminescence using the Nano-Glo HiBiT Lytic Detection System, which uses a split complementation assay format to reconstitute NanoBiT enzyme to generate a luminescent signal. A protein abundance assay was developed such that endogenous protein targets could be modified with the HiBiT peptide tag and their abundance could be assessed after compound treatment. Briefly, K562 cell lines containing a HiBiT-modification were treated with various compounds described herein (e.g., compounds of Formulas (I), (II), (III), (IV), (V), (VI), (VII), (VIII), or (IX)). After treatment for 24 hours, the protein abundance of a specific target was determined by measuring luminescence.
(§3) • Promega Nano-Glo HiBiT Lytic Detection System (cat #N3030) • Corning 384-well TC-treated microplates (cat #3570) • Synthego Engineered Cells Knock-In Clones
(§4) Cells were maintained in IMDM with 10% FBS. Before the assay, cells were diluted with […] growth media (IMDM+[…] media) and were seeded in a 384-well plate at a density of 10,000 cells/well (for each cell line listed in Table 5). Each compound was prepared as a 10-point 3-fold serial dilution in DMSO with the top dose at a final concentration of 10 μM in the well. Unmodified K562 cells were added at the previously specified density with DMSO to serve as an assay baseline and positive control (PC) and DMSO only with the respective modified cell lines was added to the negative control (NC) columns. Final DMSO concentration was kept at or below 0.25%. Treated cell plates were placed in an incubator at 37° C. with […] for 24 hours. After 24 hours, 25 μL of Complete HiBit Lytic reagent was added to each well at room temperature (e.g. one plate requiring 10 mL Lytic Buffer, 100 μL LgBiT Protein, 200 μL Lytic Substrate), shaken for 5 minutes at 600 RPM, then left to sit for 10 minutes for signal to stabilize before reading on a Spark Cyto plate reader (Tecan) with a 500 ms measurement time.
(§5) To determine compound effects on protein abundance of each target in Table 5, the percent response for each respective cell line was calculated at each compound concentration as follows:
(§6) For the normalized response at each concentration, a four-parameter logistical regression was fit to the data and the response was interpolated at the […] to determine a concentration for protein abundance at […] the untreated control.

Target C [1] = experiment: HiBiT protein abundance assay, Target C HiBiT K562 cell line; assay type: cell-based; conditions: Homo sapiens; HiBiT lytic detection, modified K562 cells, 24 hours, top dose 10 μM; read-out: Effect on protein abundance, Target C (IC50)
Experimental: as §3, §4, §5, §6

MYB mRNA = experiment: RT-qPCR splicing assay, MYB canonical junction (CJ) and alternative junction (AJ) mRNA; assay type: cell-based, human; conditions: Homo sapiens; for AC50: increase in MYB alternative junction (AJ) mRNA, read-out: MYB AJ AC50
In short: as §1

HTT = experiment: HiBiT protein abundance assay, HTT HiBiT K562 cell line; assay type: cell-based, human; conditions: 24 hours, top dose 10 μM
Experimental: as §2, §3, §4, §5, §6

SMN2 mRNA = experiment: RT-qPCR splicing assay, SMN2 canonical junction (CJ) mRNA; assay type: cell-based, human; conditions: Homo sapiens
In short: (§7)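 Canonical-junction transcript levels in compound-treated A673 or K562 cells (24 h, up to 10 uM final) were determined from lysates by RT-qPCR with housekeeping-gene normalization.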

[2] = system: K562 (human chronic myelogenous leukemia) cells; experiment: Cell Titer Glo 2.0 cell viability assay; assay type: cell-based; conditions: Homo sapiens, K562, 72 h, K562 cells, 72 hours, Cell Titer Glo 2.0; read-out: K562 GI50
Target C [3] = experiment: RT-qPCR splicing assay panel, Target C canonical junction (CJ) mRNA; assay type: cell-based, human; conditions: Homo sapiens
In short: as §7

Target C [4] = experiment: HiBiT protein abundance assay, Target C (Promega Nano-Glo HiBiT Lytic Detection System, knock-in K562 cell line); assay type: cell-based, human; conditions: Homo sapiens, K562, 24 h, HiBiT K562 cell line, 24 hours, top dose 10 μM; read-out: Effect on protein abundance, Target C (IC50 category)
Experimental: as §3, §4, §5, §6

[5] = decrease in HTT canonical junction (CJ) mRNA, RT-qPCR, read-out: HTT CJ IC50
[6] = canonical junction qPCR panel, Table 5, read-out: HTT (decrease in CJ mRNA levels, IC50)
[7] = HiBiT lytic detection, modified K562 cells, read-out: Effect on protein abundance, MYB (IC50)
[8] = canonical junction qPCR panel, Table 5, read-out: MYB (decrease in CJ mRNA levels, IC50)
[9] = decrease in MYB canonical junction (CJ) mRNA, RT-qPCR, read-out: MYB CJ IC50
[10] = HiBiT lytic detection, modified K562 cells, read-out: Effect on protein abundance, HTT (IC50)
[11] = canonical junction qPCR panel, Table 5, read-out: SMN2 (decrease in CJ mRNA levels, IC50)

Structure (SMILES) | IC50 (HTT mRNA; [5]) [µM] | IC50 (HTT mRNA; [6]) [µM] | IC50 (MYB; [7]) [µM] | IC50 (Target C [1]) [µM] | IC50 (MYB mRNA; [8]) [µM] | IC50 (MYB mRNA; [9]) [µM] | IC50 (HTT; [10]) [µM] | IC50 (SMN2 mRNA; [11]) [µM] | GI50 [2] [nM] | IC50 (Target C [3]; canonical junction qPCR panel, Table 5, read-out: Target C (decrease in CJ mRNA levels, IC50)) [µM] | IC50 (Target C [4]) [µM] | IC50 (HTT mRNA; Table 5 panel, canonical junction qPCR, compound concentration having 50% response in CJ decrease, read-out: HTT IC50 (decrease in CJ mRNA levels)) [µM] | IC50 (MYB; HiBiT K562 cell line, read-out: Effect on protein abundance, MYB (IC50 category)) [µM] | IC50 (MYB mRNA; Table 5 panel, canonical junction qPCR, compound concentration having 50% response in CJ decrease, read-out: MYB IC50 (decrease in CJ mRNA levels)) [µM] | IC50 (HTT; HiBiT K562 cell line, read-out: Effect on protein abundance, HTT (IC50 category)) [µM] | IC50 (SMN2 mRNA; Table 5 panel, canonical junction qPCR, compound concentration having 50% response in CJ decrease, read-out: SMN2 IC50 (decrease in CJ mRNA levels)) [µM] | IC50 (Target C [3]; Table 5 panel, canonical junction qPCR, compound concentration having 50% response in CJ decrease, read-out: Target C IC50 (decrease in CJ mRNA levels)) [µM] | AC50 (HTT mRNA; RT-qPCR) [µM] | AC50 (MYB mRNA; RT-qPCR) [µM]
Cc1cn2nc(-c3cnc4c(=O)n(C5CCNCC5)ncc4c3)cc(C)c2n1 [Compound 1411] | – | – | 1 to 10 | 1 to 10 | – | – | 1 to 10 | – | 1000 to 10000 | – | – | – | – | – | – | – | – | – | –
Cn1cc2cc(-c3cc4ncn(C5CCNCC5)c(=O)c4cn3)c(O)c(F)c2n1 [Compound 1276] | – | – | 0.1 to 1 | < 0.1 | – | – | < 0.1 | – | 100 to 1000 | – | – | – | – | – | – | – | – | – | –
Cc1cc(-c2nc3cc(N4CCN(C)CC4)ccc3c(=O)[nH]2)cc2cn(C)nc12 [Compound 2214] | > 10 | > 10 | > 10 | > 10 | – | – | > 10 | > 10 | 1000 to 10000 | > 10 | – | – | – | – | – | – | – | > 10 | –
Cc1cn2cc(-c3ccc4c(=O)n([C@H]5CCNC5)cc(C)c4c3)cc(F)c2n1 [Compound 451, (S)-6-(8-fluoro-2-methylimidazo[1,2-a]pyridin-6-yl)-4-methyl-2-(pyrrolidin-3-yl)isoquinolin-1(2H)-one] | – | – | – | – | – | – | – | – | 1000 to 10000 | – | > 10 | > 10 | 1 to 10 | 1 to 10 | 1 to 10 | 0.1 to 1 | > 10 | – | –
Cn1cc2cc(-n3cnc4ccc(C5=CCNCC5)cc4c3=O)ccc2n1 [Compound 2151] | > 10 | > 10 | > 10 | > 10 | 0.1 to 1 | > 10 | > 10 | > 10 | – | – | – | – | – | – | – | – | – | > 10 | 0.1 to 1

The next lines start with results.

IC50 (HTT mRNA; [5]) [µM] | IC50 (HTT mRNA; [6]) [µM] | IC50 (MYB; [7]) [µM] | IC50 (Target C [1]) [µM] | IC50 (MYB mRNA; [8]) [µM] | IC50 (MYB mRNA; [9]) [µM] | IC50 (HTT; [10]) [µM] | IC50 (SMN2 mRNA; [11]) [µM] | GI50 [2] [nM] | IC50 (Target C [3]; canonical junction qPCR panel, Table 5, read-out: Target C (decrease in CJ mRNA levels, IC50)) [µM] | IC50 (Target C [4]) [µM] | IC50 (HTT mRNA; Table 5 panel, canonical junction qPCR, compound concentration having 50% response in CJ decrease, read-out: HTT IC50 (decrease in CJ mRNA levels)) [µM] | IC50 (MYB; HiBiT K562 cell line, read-out: Effect on protein abundance, MYB (IC50 category)) [µM] | IC50 (MYB mRNA; Table 5 panel, canonical junction qPCR, compound concentration having 50% response in CJ decrease, read-out: MYB IC50 (decrease in CJ mRNA levels)) [µM] | IC50 (HTT; HiBiT K562 cell line, read-out: Effect on protein abundance, HTT (IC50 category)) [µM] | IC50 (SMN2 mRNA; Table 5 panel, canonical junction qPCR, compound concentration having 50% response in CJ decrease, read-out: SMN2 IC50 (decrease in CJ mRNA levels)) [µM] | IC50 (Target C [3]; Table 5 panel, canonical junction qPCR, compound concentration having 50% response in CJ decrease, read-out: Target C IC50 (decrease in CJ mRNA levels)) [µM] | Structure (SMILES) | AC50 (HTT mRNA; RT-qPCR) [µM] | AC50 (MYB mRNA; RT-qPCR) [µM]
> 10 | > 10 | > 10 | > 10 | > 10 | > 10 | > 10 | > 10 | – | – | – | – | – | – | – | – | – | CN1CCN(c2ccc3ncn(-c4ccc5nn(C)cc5c4)c(=O)c3c2)CC1 [Compound 2154] | > 10 | > 10
> 10 | > 10 | > 10 | > 10 | > 10 | > 10 | > 10 | > 10 | – | – | – | – | – | – | – | – | – | Cn1cc2cc(-n3cnc4ccc(N5CCNCC5)cc4c3=O)ccc2n1 [Compound 2155] | > 10 | > 10
